Reference: patent publication EP2084544B1, “STABLE STANDARDS FOR BNP IMMUNOASSAYS” (Hytest Ltd., priority 2006, dated 2011)

Assay: Stability of BNP immunoreactivity of antigens incubated in pooled human citrate plasma, measured by sandwich immunofluorometric assay (MAbs 50E1 / 24C5-Eu)
Format: in vitro ADME
Description: Antigens used in the studies. The antigens used in the stability studies included synthetic BNP-32 (Bachem, Bubendorf, Switzerland, cat. no. H-9060.0500), synthetic BNP-32 (Peptide Institute, Osaka, Japan, cat. no. 4212-v), recombinant proBNP (expressed in E. coli, non-glycosylated, from Hytest Ltd., Turku, Finland, 8PRO8), recombinant proBNP (expressed in eukaryotic CHO (Chinese hamster) cells and, thus, glycosylated, as described herein), and recombinant proBNP (expressed in eukaryotic HEK (human) cells and, thus, glycosylated, as described herein).
Antigen solutions. An antigen matrix was prepared by pooling human citrate plasmas collected from healthy donors. Plasma was obtained from 15 healthy volunteers by vein puncture and mixed with 0.11 M sodium citrate tribasic in a ratio of 4:1. The crude serum:citrate was centrifuged for 30 minutes at 2000 rpm. Plasma was decanted, pooled and stored at -70°C until use. Antigen concentrations used in the studies were 6 ng/ml for recombinant proBNP expressed in CHO cells, 20 ng/ml for synthetic BNPs, 20 ng/ml for recombinant proBNP expressed in E. coli and 20 ng/ml for recombinant proBNP expressed in HEK cells. 0.1 % sodium azide was added to plasma as a preservative to prevent bacterial growth.
Incubation at 4°C and 25°C. Antigen solutions in human plasma were incubated for different time periods (up to 96 hours) at 4°C and 25°C. Aliquots were frozen and stored at -70°C until BNP immunoreactivity was measured.
Assays for BNP immunoreactivity. BNP immunoreactivity in the samples was determined by sandwich immunofluorometric assay utilizing two BNP-specific monoclonal antibodies (MAbs). […]
MAb 24C5 specifically recognized and bound to peptide 11-22 of the BNP sequence and was conjugated to stable Eu^3+ chelate using conventional techniques. […] Consequently, it can be used for the quantification of whole BNP immunoreactivity, comprising both BNP and proBNP.

## CC[C@H](C)[C@@H]1NC(=O)[C@H](CCCNC(=N)N)NC(=O)[C@H](CC(=O)O)NC(=O)[C@H](CCSC)NC(=O)[C@H](CCCCN)NC(=O)[C@H](CCCNC(=N)N)NC(=O)CNC(=O)[C@H](Cc2ccccc2)NC(=O)[C@@H](NC(=O)CNC(=O)[C@H](CO)NC(=O)CNC(=O)[C@H](CCC(N)=O)NC(=O)[C@@H](NC(=O)[C@H](CCSC)NC(=O)[C@H](CCCCN)NC(=O)[C@@H]2CCCN2C(=O)[C@@H](N)CO)C(C)C)CSSC[C@@H](C(=O)N[C@@H](CCCCN)C(=O)N[C@H](C(=O)N[C@@H](CC(C)C)C(=O)N[C@@H](CCCN=C(N)N)C(=O)N[C@@H](CCCN=C(N)N)C(=O)N[C@@H](Cc2cnc[nH]2)C(=O)O)C(C)C)NC(=O)CNC(=O)[C@H](CC(C)C)NC(=O)CNC(=O)[C@H](CO)NC(=O)[C@H](CO)NC(=O)[C@H](CO)NC(=O)[C@H](CO)NC1=O [Synthetic BNP-32]
96 hours of incubation at 4°C
  immunoreactivity detected after incubation (in words): Almost no immunoreactivity
96 hours of incubation at 25°C
  immunoreactivity detected after incubation (in words): Almost no immunoreactivity
Incubation up to 96 hours at 4°C and 25°C
  stability among the tested protein forms displaying BNP immunoreactivity (rank in words): worst stability
